This is an account of results in ChEMBL document CHEMBL1944561, “Discovery and SAR exploration of a novel series of imidazo[4,5-b]pyrazin-2-ones as potent and selective mTOR kinase inhibitors” (Bioorg Med Chem Lett, 2011).

Assay [1] addresses T1, Calcium/calmodulin-dependent protein kinase type IV (Homo sapiens) (UniProt Q16566).
T1 sequence (whole entry): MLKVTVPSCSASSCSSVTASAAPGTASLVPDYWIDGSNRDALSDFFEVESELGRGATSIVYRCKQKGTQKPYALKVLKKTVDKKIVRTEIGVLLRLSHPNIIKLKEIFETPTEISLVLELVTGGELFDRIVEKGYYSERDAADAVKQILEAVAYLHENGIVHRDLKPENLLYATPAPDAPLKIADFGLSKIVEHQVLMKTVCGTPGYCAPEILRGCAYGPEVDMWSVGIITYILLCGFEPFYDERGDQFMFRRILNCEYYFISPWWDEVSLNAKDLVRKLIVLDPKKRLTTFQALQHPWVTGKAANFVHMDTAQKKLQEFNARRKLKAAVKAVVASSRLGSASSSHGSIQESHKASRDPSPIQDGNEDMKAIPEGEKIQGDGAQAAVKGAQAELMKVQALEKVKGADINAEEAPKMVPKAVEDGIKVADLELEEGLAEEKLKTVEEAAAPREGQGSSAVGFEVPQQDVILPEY
In words: Inhibition of CaMK4 assessed as activity remaining at 10 uM.

Assay [2] has as its target Mitogen-activated protein kinase kinase kinase 9 (Homo sapiens) (UniProt P80192). In words: Inhibition of MLK1 assessed as activity remaining at 10 uM.
For assay [3], the target named is T2, Protein kinase C zeta type (Homo sapiens) (UniProt Q05513).
T2 sequence (whole entry): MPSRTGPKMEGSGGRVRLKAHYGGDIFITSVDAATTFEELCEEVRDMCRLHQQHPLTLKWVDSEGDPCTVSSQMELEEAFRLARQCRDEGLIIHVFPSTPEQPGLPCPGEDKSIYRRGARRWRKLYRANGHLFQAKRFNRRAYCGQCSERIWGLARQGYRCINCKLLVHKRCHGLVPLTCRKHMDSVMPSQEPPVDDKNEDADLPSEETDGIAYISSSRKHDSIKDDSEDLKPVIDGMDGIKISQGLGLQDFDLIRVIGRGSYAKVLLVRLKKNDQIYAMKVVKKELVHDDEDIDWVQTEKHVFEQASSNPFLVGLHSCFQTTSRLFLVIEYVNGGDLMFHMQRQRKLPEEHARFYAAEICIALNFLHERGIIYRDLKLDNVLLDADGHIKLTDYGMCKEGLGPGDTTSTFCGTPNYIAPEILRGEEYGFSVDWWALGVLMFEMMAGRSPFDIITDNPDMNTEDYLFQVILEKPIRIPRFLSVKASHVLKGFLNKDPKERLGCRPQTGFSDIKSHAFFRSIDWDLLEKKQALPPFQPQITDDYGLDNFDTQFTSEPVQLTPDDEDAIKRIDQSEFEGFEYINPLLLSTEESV
In words: Inhibition of PKC-zeta assessed as activity remaining at 10 uM.

The target of assay [4] is T3, Serine/threonine-protein kinase TBK1 (Homo sapiens) (UniProt Q9UHD2).
T3 sequence (whole entry): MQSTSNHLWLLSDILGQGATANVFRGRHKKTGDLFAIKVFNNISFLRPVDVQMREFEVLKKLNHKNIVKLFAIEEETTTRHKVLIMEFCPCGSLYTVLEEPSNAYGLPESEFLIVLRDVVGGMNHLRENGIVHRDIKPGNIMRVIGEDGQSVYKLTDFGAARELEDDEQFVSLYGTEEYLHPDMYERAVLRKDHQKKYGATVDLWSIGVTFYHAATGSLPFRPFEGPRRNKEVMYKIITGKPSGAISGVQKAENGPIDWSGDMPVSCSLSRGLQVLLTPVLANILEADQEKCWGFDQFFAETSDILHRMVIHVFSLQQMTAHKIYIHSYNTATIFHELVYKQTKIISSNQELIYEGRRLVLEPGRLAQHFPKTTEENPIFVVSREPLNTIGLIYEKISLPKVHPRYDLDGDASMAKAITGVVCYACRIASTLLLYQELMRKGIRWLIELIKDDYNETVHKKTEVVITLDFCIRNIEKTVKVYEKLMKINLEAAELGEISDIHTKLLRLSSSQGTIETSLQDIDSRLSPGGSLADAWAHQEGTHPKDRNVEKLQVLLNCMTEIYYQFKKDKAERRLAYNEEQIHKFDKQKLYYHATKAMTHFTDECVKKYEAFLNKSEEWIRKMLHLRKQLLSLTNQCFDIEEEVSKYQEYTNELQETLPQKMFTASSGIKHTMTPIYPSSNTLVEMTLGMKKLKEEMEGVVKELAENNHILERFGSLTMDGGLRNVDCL
In words: Inhibition of TBK1 assessed as activity remaining at 10 uM.

The target of assay [5] is Fibroblast growth factor receptor 1 (Homo sapiens) (UniProt P11362). In words: Inhibition of FGFR1 assessed as activity remaining at 10 uM.
The target of assay [6] is Hepatocyte growth factor receptor (Homo sapiens) (UniProt P08581). In words: Inhibition of Met assessed as activity remaining at 10 uM.
In assay [7] the target is T4, Ephrin type-B receptor 4 (Homo sapiens) (UniProt P54760).
T4 sequence (whole entry): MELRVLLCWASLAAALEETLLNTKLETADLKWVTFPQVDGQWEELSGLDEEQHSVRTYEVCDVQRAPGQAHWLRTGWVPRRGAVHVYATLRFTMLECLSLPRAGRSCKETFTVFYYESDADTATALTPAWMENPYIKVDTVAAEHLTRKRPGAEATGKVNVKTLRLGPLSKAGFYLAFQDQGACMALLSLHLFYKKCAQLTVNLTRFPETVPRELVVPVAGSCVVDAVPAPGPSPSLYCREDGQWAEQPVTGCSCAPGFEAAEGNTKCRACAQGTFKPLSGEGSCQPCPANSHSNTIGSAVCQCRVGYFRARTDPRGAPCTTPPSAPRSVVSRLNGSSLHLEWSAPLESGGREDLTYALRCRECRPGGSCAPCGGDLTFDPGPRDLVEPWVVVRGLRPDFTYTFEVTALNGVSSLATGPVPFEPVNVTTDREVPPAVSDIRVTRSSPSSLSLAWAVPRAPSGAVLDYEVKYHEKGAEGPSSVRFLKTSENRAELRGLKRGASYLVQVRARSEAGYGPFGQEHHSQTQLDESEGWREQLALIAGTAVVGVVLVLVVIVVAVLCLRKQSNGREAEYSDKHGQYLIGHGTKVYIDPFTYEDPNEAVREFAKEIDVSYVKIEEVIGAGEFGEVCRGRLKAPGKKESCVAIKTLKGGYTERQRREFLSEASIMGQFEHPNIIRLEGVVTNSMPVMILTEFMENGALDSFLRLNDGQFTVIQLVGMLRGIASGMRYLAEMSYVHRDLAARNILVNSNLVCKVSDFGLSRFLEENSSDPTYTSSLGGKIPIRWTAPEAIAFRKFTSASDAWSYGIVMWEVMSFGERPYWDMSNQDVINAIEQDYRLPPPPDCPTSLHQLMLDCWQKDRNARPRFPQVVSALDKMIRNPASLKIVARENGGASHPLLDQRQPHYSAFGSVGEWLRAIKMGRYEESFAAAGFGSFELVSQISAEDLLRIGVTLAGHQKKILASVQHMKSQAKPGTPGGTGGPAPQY
In words: Inhibition of EphB4 assessed as activity remaining at 10 uM.

Chain of Hepatocyte growth factor receptor (Homo sapiens) (P08581 whole entry): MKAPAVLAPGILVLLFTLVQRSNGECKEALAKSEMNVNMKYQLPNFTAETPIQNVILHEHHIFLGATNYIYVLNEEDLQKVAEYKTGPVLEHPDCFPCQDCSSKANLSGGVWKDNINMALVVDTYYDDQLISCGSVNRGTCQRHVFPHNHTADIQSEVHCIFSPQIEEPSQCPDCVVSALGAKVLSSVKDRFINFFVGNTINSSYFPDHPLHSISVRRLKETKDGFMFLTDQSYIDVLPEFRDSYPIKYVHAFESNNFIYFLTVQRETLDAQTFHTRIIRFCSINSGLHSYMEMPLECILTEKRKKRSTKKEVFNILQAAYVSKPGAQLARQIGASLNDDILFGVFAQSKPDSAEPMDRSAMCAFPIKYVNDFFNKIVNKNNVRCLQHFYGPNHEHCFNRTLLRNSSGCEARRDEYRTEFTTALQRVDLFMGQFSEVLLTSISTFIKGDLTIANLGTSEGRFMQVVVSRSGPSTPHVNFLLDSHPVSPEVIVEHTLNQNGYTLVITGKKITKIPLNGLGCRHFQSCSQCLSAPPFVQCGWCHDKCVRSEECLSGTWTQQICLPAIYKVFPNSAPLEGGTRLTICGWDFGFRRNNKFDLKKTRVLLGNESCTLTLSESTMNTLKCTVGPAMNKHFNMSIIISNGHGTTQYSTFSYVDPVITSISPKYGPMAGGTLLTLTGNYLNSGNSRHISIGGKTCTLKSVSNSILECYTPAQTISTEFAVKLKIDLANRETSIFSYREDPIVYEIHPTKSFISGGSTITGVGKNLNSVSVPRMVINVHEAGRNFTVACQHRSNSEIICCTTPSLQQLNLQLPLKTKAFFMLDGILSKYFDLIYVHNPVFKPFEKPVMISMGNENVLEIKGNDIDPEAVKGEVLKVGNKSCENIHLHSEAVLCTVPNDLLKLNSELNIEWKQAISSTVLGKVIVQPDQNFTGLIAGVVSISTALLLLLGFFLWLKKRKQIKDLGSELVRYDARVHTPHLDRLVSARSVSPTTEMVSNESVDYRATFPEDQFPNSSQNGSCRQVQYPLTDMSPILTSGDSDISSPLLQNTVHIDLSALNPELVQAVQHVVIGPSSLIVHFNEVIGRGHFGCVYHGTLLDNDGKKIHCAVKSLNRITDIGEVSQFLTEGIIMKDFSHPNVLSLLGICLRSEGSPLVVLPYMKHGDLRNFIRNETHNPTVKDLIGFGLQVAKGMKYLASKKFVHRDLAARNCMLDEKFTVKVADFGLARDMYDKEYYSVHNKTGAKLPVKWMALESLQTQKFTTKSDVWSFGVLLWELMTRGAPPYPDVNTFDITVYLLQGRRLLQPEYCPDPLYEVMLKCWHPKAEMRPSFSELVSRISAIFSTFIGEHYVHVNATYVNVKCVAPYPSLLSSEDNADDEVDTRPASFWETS
Chain of Mitogen-activated protein kinase kinase kinase 9 (Homo sapiens) (P80192 whole entry, looked up): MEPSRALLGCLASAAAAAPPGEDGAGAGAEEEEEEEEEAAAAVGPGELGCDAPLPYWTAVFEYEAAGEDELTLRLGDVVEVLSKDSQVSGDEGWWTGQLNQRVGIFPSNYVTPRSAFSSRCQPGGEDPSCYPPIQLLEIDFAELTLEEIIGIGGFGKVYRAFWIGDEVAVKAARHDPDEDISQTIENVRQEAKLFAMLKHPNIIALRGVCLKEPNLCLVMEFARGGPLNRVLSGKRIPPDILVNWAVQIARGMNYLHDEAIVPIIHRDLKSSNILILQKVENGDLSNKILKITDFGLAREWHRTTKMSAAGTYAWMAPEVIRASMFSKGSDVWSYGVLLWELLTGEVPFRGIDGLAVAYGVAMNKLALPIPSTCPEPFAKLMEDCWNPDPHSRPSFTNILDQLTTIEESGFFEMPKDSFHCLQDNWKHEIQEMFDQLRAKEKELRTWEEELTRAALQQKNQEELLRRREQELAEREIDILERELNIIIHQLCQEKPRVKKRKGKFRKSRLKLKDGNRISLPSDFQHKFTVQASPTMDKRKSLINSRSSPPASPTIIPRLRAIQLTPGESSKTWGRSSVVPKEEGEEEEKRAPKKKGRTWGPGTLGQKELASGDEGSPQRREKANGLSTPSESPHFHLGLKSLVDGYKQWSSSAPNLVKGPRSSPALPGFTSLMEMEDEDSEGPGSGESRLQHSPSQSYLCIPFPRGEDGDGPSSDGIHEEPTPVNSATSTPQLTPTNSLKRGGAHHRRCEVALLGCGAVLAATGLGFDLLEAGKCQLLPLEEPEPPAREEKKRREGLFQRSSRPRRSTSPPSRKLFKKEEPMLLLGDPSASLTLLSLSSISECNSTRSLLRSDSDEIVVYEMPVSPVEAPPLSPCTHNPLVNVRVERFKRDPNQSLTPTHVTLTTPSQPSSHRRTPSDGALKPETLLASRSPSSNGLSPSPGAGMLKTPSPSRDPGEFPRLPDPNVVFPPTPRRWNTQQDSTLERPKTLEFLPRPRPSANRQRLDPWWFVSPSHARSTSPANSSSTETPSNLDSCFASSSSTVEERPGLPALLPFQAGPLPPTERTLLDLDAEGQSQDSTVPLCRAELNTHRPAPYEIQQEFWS
Chain of Fibroblast growth factor receptor 1 (Homo sapiens) (P11362 22-822 limits assumed): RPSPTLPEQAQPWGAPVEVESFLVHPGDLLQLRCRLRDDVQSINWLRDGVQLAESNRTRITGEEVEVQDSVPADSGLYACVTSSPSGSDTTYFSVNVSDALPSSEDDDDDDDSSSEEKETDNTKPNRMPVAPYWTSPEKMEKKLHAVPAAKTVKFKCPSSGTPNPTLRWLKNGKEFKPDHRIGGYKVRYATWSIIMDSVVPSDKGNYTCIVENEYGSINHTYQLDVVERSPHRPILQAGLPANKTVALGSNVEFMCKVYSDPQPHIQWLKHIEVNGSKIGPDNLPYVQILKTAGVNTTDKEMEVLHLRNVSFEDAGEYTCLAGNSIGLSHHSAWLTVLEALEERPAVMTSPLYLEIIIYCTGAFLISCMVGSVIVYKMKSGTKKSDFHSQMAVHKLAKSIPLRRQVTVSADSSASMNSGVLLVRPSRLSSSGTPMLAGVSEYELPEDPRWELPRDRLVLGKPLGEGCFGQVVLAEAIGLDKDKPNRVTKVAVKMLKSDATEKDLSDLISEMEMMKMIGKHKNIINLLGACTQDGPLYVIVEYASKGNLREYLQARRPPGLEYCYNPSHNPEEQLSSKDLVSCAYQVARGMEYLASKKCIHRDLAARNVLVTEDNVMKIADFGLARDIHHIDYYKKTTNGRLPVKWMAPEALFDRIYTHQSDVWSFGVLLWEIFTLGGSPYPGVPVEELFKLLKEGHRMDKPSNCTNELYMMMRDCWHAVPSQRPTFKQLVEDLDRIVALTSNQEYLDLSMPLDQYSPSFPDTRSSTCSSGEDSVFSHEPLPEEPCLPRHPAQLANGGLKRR

In the case of `CC(C)(O)c1ccc(-c2cnc3[nH]c(=O)n(CC4CCCCC4)c3n2)cc1`, the Activity in assay [1] was 99%; in assay [2] it was 80%; in assay [3], 91%; in assay [4], 91%; in assay [5] it was 94%; in assay [6] it was 94%. Moreover, the Activity in assay [7] was determined as 90%.

As for `O=c1[nH]c2ncc(-c3ccc(-c4nc[nH]n4)cc3)nc2n1CC1CCOCC1`, the Activity in assay [1] is 103%; in assay [2], 86%; in assay [3] it was 94%; in assay [4], 94%; in assay [5], 93%; in assay [6], 92%. For the same molecule, the Activity in assay [7] is 97%.

For the molecule `O=c1[nH]c2ncc(-c3ccc4[nH]cnc4c3)nc2n1CC1CCCCC1`, the Activity in assay [1] turned out to be 101%; in assay [2], 49%; in assay [3] it was 75%; in assay [4] it was 77%; in assay [5] it was 63%; in assay [6], 66%. Further, the Activity in assay [7] amounted to 96%.
